From patent US11046649B2, “Compounds useful as inhibitors of indoleamine 2,3-dioxygenase and/or tryptophan dioxygenase” (Board of Regents, The University of Texas System, priority 2018, dated 2021) come the findings set out here.

This assay concerns the target T1, IDO1 (Homo sapiens, UniProt P14902).
T1 construct: endogenous in cells; host or cells: HeLa cells (ATCC), IDO1 induced with 10 ng/mL IFNgamma
In words: IDO1 cell-based assay. As to conditions: HeLa cells, 10 ng/mL IFNgamma, 24 hours with test compound; N-Formyl Kynurenine and L-tryptophan quantified by RFMS.

A word on the IC50: it is the point on the concentration scale where inhibition reaches its midpoint. Read a high IC50 as lower potency.

T1 sequence (P14902 whole entry): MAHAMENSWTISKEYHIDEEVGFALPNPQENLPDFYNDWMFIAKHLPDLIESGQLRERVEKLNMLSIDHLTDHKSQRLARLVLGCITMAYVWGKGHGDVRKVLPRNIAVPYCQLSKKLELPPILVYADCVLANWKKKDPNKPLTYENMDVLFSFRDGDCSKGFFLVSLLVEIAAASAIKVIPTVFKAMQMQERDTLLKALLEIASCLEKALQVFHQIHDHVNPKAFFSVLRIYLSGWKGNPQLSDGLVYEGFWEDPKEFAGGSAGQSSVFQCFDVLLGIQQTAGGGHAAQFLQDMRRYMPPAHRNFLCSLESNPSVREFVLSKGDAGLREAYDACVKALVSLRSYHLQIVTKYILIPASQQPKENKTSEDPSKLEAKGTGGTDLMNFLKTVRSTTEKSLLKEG

“2-((1R,3s,5S,6r)-3-((6- fluoroquinolin-4-yl)oxy)- bicyclo[3.1.0]hexan-6-yl)- N-(1-(trifluoromethyl)-1H- pyrazol-3-yl)propanamide [Example 102]” returned a half-maximal inhibitory concentration (IC50) of 0.0037 µM.

In the case of “2-((1R,3s,5S,6r)-3-((6- fluoroquinolin-4-yl)oxy)- bicyclo[3.1.0]hexan-6-yl)- N-(5-(4-methyl-4H-1,2,4- triazol-3-yl)pyridin-2-yl)- propanamide [Example 97]”, inhibition was half-maximal at 0.818 µM (IC50).

Consider `CC(C(=O)Nc1ccc(F)cn1)[C@H]1[C@@H]2C[C@@H](n3cnc4cc(F)c(F)cc43)C[C@@H]21` (stereo partly drawn) [Example 4, 2-((1R,3s,5S,6r)-3-(5,6-difluoro-1H-benzo[d]imidazol-1-yl)bicyclo[3.1.0]hexan-6-yl)-N-(5-fluoropyridin-2-yl)propanamide], for which the midpoint of inhibition, the IC50, lay at 0.0051 µM.

In turn, `COc1ccc(-c2ccc(NC(=O)[C@@H](C)[C@H]3[C@@H]4C[C@@H](n5cnc6cc(F)c(F)cc65)C[C@@H]43)cc2)cn1` [Example 6, (S)-2-((1R,3R,5S,6r)-3-(5,6-difluoro-1H-benzo[d]imidazol-1-yl)bicyclo[3.1.0]hexan-6-yl)-N-(4-(6-methoxypyridin-3-yl)phenyl)propanamide] had a half-inhibitory concentration (IC50) of 0.329 µM.

Take `CC(C(=O)NC12CC(CO)(C1)C2)[C@H]1[C@@H]2C[C@@H](Oc3ccnc4ccc(F)cc34)C[C@@H]21` (stereo partly drawn) [Example 7, 2-((1R,3s,5S,6r)-3-((6-fluoroquinolin-4-yl)oxy)bicyclo[3.1.0]hexan-6-yl)-N-(3-(hydroxy-methyl)bicyclo[1.1.1]pentan-1-yl)propanamide]: the IC50 worked out at 0.469 µM.

Compound `CC(C(=O)NC12CC(CC#N)(C1)C2)[C@H]1[C@@H]2C[C@@H](Oc3ccnc4ccc(F)cc34)C[C@@H]21` (stereo partly drawn) [Example 8, N-(3-(cyanomethyl)bicyclo[1.1.1]pentan-1-yl)-2-((1R,3s,5S,6r)-3-((6-fluoroquinolin-4-yl)-oxy)bicyclo[3.1.0]hexan-6-yl)propanamide] registered an IC50 of 0.0513 µM.

As for `COCC12CC(NC(=O)C(C)[C@H]3[C@@H]4C[C@@H](Oc5ccnc6ccc(F)cc56)C[C@@H]43)(C1)C2` (stereo partly drawn) [Example 9, 2-((1R,3s,5S,6r)-3-((6-fluoroquinolin-4-yl)oxy)bicyclo[3.1.0]hexan-6-yl)-N-(3-(methoxymethyl)bicyclo[1.1.1]pentan-1-yl)propanamide], the half-inhibitory concentration (IC50) was found to be 0.055 µM.

In turn, `CC(C(=O)NC12CC(N)(C1)C2)[C@H]1[C@@H]2C[C@@H](Oc3ccnc4ccc(F)cc34)C[C@@H]21` (stereo partly drawn) [Example 11, N-(3-aminobicyclo[1.1.1]pentan-1-yl)-2-((1R,3s,5S,6r)-3-((6-fluoroquinolin-4-yl)oxy)-bicyclo-[3.1.0]hexan-6-yl)propanamide] registered a half-maximal inhibitory concentration (IC50) of 1.6 µM.

`CCC(c1nc2cc(C(F)(F)F)ccc2[nH]1)[C@H]1[C@@H]2C[C@@H](Oc3ccnc4ccc(F)cc34)C[C@@H]21` (stereo partly drawn) [Example 12] came in with a half-inhibitory concentration (IC50) of 0.00085 µM.

The compound `CC(C(=O)NC12CC(C(C)O)(C1)C2)[C@H]1[C@@H]2C[C@@H](n3cnc4cc(F)c(F)cc43)C[C@@H]21` (stereo partly drawn) [Example 13, 2-((1R,3s,5S,6r)-3-(5,6-difluoro-1H-benzo[d]imidazol-1-yl)bicyclo[3.1.0]hexan-6-yl)-N-(3-(1-hydroxyethyl)bicyclo[1.1.1]pentan-1-yl)propanamide] had a half-maximal inhibitory concentration (IC50) of 0.626 µM.

Regarding `CC(C(=O)Nc1ccc(Cl)cc1)[C@H]1[C@@H]2C[C@@H](n3cnc4ccc(C#N)cc43)C[C@@H]21` (stereo partly drawn) [Example 16, N-(4-chlorophenyl)-2-((1R,3s,5S,6r)-3-(6-cyano-1H-benzo[d]imidazol-1-yl)-bicyclo[3.1.0]hexan-6-yl)-propanamide], half-maximal inhibition (IC50) required 0.0044 µM.

For the compound `CC(C(=O)Nc1ccc(C(F)(F)F)cn1)[C@H]1[C@@H]2C[C@@H](n3cnc4cc(F)c(F)cc43)C[C@@H]21` (stereo partly drawn) [Example 18, 2-((1R,3s,5S,6r)-3-(5,6-difluoro-1H-benzo[d]-imidazol-1-yl)bicyclo-[3.1.0]hexan-6-yl)-N-(5-(trifluoromethyl)pyridin-2-yl)propanamide], 0.0048 µM corresponded to half-maximal inhibition (IC50).
